ChEMBL document CHEMBL1146661, “The effect of 6-substituted-4',4"-difluorobenztropines on monoamine transporters and the muscarinic M1 receptor” (Bioorg Med Chem Lett, 2004)

Assays:
[1] = target: Norepinephrine transporter (Rattus norvegicus, UniProt Q9WTR4); assay: Displacement of [3H]-[…] from norepinephrine transporter of rat brain membrane; type: tissue-based
[2] = target: Sodium-dependent dopamine transporter (Rattus norvegicus, UniProt P23977); assay: Displacement of [3H]WIN-35428 from dopamine transporter of rat brain membrane; type: tissue-based
[3] = target: Monoamine transporters; Norepininephrine & dopamine (Rattus norvegicus) (UniProt P23977+Q9WTR4); assay: Relative affinity for dopamine and norepinephrine transporters; type: protein assay
[4] = target: T1, Sodium-dependent serotonin transporter (Rattus norvegicus, UniProt P31652); assay: Displacement of [3H]-citalopram from serotonin transporter of rat brain membrane; type: tissue-based
Rattus norvegicus = species on record: Rattus norvegicus; assay: Relative affinity for dopamine transporter and muscarinic acetylcholine M1 receptor
[5] = target: T2, Muscarinic acetylcholine receptor M1 (Rattus norvegicus, UniProt P08482); assay: Displacement of [3H]pirenzepine from muscarinic acetylcholine receptor M1 of rat brain membrane
T2 sequence (P08482 whole entry): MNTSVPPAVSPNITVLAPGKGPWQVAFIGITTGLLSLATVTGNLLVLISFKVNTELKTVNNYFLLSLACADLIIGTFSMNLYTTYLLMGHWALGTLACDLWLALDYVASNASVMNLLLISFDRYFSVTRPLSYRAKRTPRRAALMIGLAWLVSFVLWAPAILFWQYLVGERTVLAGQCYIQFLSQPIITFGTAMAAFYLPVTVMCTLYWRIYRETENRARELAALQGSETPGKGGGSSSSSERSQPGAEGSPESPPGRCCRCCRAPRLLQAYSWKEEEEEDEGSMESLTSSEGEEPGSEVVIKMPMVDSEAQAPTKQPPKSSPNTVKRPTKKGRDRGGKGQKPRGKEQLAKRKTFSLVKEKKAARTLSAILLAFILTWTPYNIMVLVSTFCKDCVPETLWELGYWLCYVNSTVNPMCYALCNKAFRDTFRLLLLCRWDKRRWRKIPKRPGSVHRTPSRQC

[6] = target: Monoamine transporters; serotonin & dopamine (Rattus norvegicus) (UniProt P31652+P23977); assay: Relative affinity for dopamine and serotonin transporters; type: protein assay
[7] = target: T1, Sodium-dependent serotonin transporter; assay: Displacement of [3H]citalopram from serotonin transporter of rat brain membrane; type: tissue-based

T1 sequence (P31652 whole entry): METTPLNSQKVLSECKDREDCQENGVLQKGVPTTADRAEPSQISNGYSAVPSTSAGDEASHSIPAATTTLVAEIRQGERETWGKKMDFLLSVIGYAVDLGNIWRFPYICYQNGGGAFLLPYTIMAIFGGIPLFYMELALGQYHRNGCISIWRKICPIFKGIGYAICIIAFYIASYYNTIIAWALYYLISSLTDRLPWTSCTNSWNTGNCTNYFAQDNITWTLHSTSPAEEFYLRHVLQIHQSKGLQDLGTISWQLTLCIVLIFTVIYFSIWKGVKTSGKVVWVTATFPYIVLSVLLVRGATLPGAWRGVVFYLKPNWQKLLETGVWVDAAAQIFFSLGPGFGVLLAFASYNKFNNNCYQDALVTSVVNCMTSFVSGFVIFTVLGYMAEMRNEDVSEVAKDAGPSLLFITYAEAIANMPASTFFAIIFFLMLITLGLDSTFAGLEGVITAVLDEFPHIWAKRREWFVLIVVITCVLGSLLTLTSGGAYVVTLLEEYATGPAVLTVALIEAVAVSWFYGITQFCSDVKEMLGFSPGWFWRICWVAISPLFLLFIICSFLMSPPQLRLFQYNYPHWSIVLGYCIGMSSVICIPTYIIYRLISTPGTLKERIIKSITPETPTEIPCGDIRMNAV
Sequence of Norepinephrine transporter (Q9WTR4 whole entry): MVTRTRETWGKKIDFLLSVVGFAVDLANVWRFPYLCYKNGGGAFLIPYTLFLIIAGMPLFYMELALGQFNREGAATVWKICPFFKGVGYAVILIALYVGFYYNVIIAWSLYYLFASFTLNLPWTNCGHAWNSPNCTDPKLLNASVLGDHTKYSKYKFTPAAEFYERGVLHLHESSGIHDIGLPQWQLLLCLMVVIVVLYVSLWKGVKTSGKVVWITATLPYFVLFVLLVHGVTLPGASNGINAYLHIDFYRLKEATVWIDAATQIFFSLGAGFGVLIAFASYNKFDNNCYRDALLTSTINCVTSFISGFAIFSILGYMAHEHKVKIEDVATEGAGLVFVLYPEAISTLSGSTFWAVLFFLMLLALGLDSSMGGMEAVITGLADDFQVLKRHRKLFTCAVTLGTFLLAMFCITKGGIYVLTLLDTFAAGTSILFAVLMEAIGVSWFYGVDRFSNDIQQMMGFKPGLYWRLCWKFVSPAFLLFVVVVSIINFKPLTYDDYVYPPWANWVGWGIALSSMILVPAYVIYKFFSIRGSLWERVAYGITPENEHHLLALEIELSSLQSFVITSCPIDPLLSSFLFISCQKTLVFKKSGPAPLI
Sequence of Sodium-dependent dopamine transporter (P23977 whole entry): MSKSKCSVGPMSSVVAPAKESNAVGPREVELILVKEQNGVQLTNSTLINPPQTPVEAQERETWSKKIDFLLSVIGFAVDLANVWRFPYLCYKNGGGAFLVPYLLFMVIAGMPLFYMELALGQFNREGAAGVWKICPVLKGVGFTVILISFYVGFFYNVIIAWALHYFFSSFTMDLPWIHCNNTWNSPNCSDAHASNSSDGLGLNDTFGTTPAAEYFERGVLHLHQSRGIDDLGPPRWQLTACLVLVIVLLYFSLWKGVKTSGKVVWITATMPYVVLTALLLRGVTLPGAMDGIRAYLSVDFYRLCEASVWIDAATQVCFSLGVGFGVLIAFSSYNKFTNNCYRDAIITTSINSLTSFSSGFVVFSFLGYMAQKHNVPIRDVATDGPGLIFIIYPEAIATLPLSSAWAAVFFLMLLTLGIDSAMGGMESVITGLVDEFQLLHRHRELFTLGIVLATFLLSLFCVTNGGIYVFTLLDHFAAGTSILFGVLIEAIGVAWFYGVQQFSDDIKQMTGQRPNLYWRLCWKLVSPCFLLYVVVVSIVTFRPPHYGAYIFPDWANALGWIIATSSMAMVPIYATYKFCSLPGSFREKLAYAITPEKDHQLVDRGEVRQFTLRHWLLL
Sequence of Monoamine transporters; serotonin & dopamine (Rattus norvegicus) (P23977 whole entry, looked up): as the sequence (P23977 whole entry) above
Sequence of Monoamine transporters; serotonin & dopamine (Rattus norvegicus) (P31652 whole entry, looked up): as the sequence (P31652 whole entry) above

## CN1C2C[C@H](OC(c3ccc(F)cc3)c3ccc(F)cc3)CC1[C@@H](C(=O)OCc1ccccc1)C2 (stereo partly specified)
[1]
  Ki: 6.21 µM
[2]
  Ki: 119 nM
[3]
  Selectivity: 52
[4]
  Ki: 5.85 µM
Rattus norvegicus
  Selectivity: 19
[5]
  Ki: 2270 nM
[6]
  Selectivity: 49

## CN1C2CC(OC(c3ccc(F)cc3)c3ccc(F)cc3)CC1[C@H](O)C2 (stereo partly specified)
[1]
  Ki: 6.39 µM
[2]
  Ki: 31.3 nM
[3]
  Selectivity: 204
[4]
  Ki: 11.7 µM
Rattus norvegicus
  Selectivity: 1
[5]
  Ki: 27 nM
[6]
  Selectivity: 374

## O=C(Oc1ccccc1)[C@H]1CC2C[C@H](OC(c3ccc(F)cc3)c3ccc(F)cc3)CC1N2 (stereo partly specified)
[1]
  Ki: 3.17 µM
[2]
  Ki: 175 nM
[3]
  Selectivity: 18
[4]
  Ki: 4.44 µM
Rattus norvegicus
  Selectivity: 48
[5]
  Ki: 8430 nM
[6]
  Selectivity: 25

## CCOC(=O)[C@H]1CC2C[C@H](OC(c3ccc(F)cc3)c3ccc(F)cc3)CC1N2C (stereo partly specified)
[1]
  Ki: 3.72 µM
[2]
  Ki: 75.4 nM
[3]
  Selectivity: 49
[4]
  Ki: 14 µM
Rattus norvegicus
  Selectivity: 2
[5]
  Ki: 142 nM
[6]
  Selectivity: 186

## CN1C2CC(OC(c3ccc(F)cc3)c3ccc(F)cc3)CC1[C@@H](C(=O)O)C2 (stereo partly specified)
[1]
  Ki: 1.38 µM
[2]
  Ki: 5.81 nM
[3]
  Selectivity: 238
[4]
  Ki: 8.29 µM
Rattus norvegicus
  Selectivity: 8
[5]
  Ki: 46.8 nM
[6]
  Selectivity: 1430

## COC(=O)[C@@H]1C2CC[C@@H](C[C@@H]1OC(=O)c1ccccc1)N2C (single isomer, unassigned) [COCAINE]
[5]
  Ki: 61400 nM

## CN1C2C[C@H](OC(c3ccc(F)cc3)c3ccc(F)cc3)CC1[C@@H](C(=O)OCCc1ccccc1)C2 (stereo partly specified)
[1]
  Ki: 5.69 µM
[2]
  Ki: 171 nM
[3]
  Selectivity: 33
[4]
  Ki: 7.96 µM
Rattus norvegicus
  Selectivity: 20
[5]
  Ki: 3480 nM
[6]
  Selectivity: 47

## CN1C2CC(OC(c3ccc(F)cc3)c3ccc(F)cc3)CC1[C@@H](O)C2 (stereo partly specified)
[1]
  Ki: 1.3 µM
[2]
  Ki: 6.28 nM
[3]
  Selectivity: 207
Rattus norvegicus
  Selectivity: 8
[7]
  Ki: 9.09 µM
[5]
  Ki: 48.3 nM
[6]
  Selectivity: 1450

## CC(C)OC(=O)[C@H]1CC2C[C@H](OC(c3ccc(F)cc3)c3ccc(F)cc3)CC1N2C (stereo partly specified)
[1]
  Ki: 10.2 µM
[2]
  Ki: 151 nM
[3]
  Selectivity: 68
[4]
  Ki: 14.8 µM
Rattus norvegicus
  Selectivity: 5
[5]
  Ki: 784 nM
[6]
  Selectivity: 98

## COS(=O)(=O)[C@H]1CC2C[C@H](OC(c3ccc(F)cc3)c3ccc(F)cc3)CC1N2C (stereo partly specified)
[1]
  Ki: 6.88 µM
[2]
  Ki: 81 nM
[3]
  Selectivity: 85
[4]
  Ki: 13.8 µM
Rattus norvegicus
  Selectivity: 8
[5]
  Ki: 617 nM
[6]
  Selectivity: 170

## CN1C2C[C@H](OC(c3ccc(F)cc3)c3ccc(F)cc3)CC1[C@@H](C(=O)Oc1ccccc1)C2 (stereo partly specified)
[1]
  Ki: 1.37 µM
[2]
  Ki: 107 nM
[3]
  Selectivity: 13
[4]
  Ki: 3.73 µM
Rattus norvegicus
  Selectivity: 5
[5]
  Ki: 552 nM
[6]
  Selectivity: 35

## CN1C2CCC1CC(OC(c1ccc(F)cc1)c1ccc(F)cc1)C2 (stereo unspecified) [DIFLUOROBENZTROPINE]
[1]
  Ki: 0.844 µM

## CC(C)COC(=O)[C@H]1CC2C[C@H](OC(c3ccc(F)cc3)c3ccc(F)cc3)CC1N2C (stereo partly specified)
[1]
  Ki: 6.61 µM
[2]
  Ki: 148 nM
[3]
  Selectivity: 45
[4]
  Ki: 7.96 µM
Rattus norvegicus
  Selectivity: 5
[5]
  Ki: 723 nM
[6]
  Selectivity: 54

## COC(=O)[C@H]1CC2C[C@H](OC(c3ccc(F)cc3)c3ccc(F)cc3)CC1N2C (stereo partly specified)
[1]
  Ki: 6.91 µM
[2]
  Ki: 57.1 nM
[3]
  Selectivity: 121
[4]
  Ki: 16.5 µM
Rattus norvegicus
  Selectivity: 8
[5]
  Ki: 432 nM
[6]
  Selectivity: 289
